Earlier results on four substances are cited in patent publication US11220552B2, “Anti-CD20 combinations for treating tumors” (BIRDIE BIOPHARMACEUTICALS, INC., priority 2016, dated 2022).

Data set [1] concerns lymphoid malignancies.
Data set [2] deals with three human lymphoma cell lines.
Data set [3] has as its target T1, CD20 (Homo sapiens, UniProt P11836).
T1 sequence (P11836 1-297): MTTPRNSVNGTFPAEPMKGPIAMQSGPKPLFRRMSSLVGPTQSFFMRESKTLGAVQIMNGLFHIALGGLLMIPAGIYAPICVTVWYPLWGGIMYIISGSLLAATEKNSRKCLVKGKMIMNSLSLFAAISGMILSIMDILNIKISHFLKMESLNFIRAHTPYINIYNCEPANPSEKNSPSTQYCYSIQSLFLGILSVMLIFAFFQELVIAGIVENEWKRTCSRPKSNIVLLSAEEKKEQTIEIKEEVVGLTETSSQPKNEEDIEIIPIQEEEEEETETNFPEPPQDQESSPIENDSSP
The conditions noted are these: Asp101 instead of Asn101 in CDR3 of variable heavy chain, versus rituximab CDRs.

For data set [4], the system named is rituximab-sensitive and resistant cells.

As for “Ocrelizumab: type I second generation humanized anti-CD20 mAb (Genentech/Roche/Biogen)”, in data set [1], the “ADCC activity compared with rituximab” value is listed as “increased” and the “CDC activity compared with rituximab” value was “lower”. Take “Veltuzumab: humanized, type I anti-CD20 IgG1 mAb with CDRs identical to rituximab except Asp101 instead of Asn101”: the CDC cytotoxicity result in data set [2] is reported as “increased”. Besides, the off-rates result in data set [3] is recorded as “significantly slower”. Consider “Ofatumumab: fully human type I anti-CD20 IgG1kappa mAb (Genmab)”, for which, in data set [4] (both rituximab-sensitive and resistant cells), the “potency compared with rituximab” value is recorded as “more potent than rituximab”.

“GA101: fully humanized, type II, glycoengineered IgG1 anti-CD20 mAb (Glycart/Roche)”: the “activity in rituximab-resistant cell lines” value in data set [4] (rituximab-resistant cell lines) was “activity”.
